Data: patent publication US4232166A, “15-Deoxy-16-hydroxy-17-methylene prostaglandins of the E and F series” (American Cyanamid Company, priority 1979, dated 1980)

How the values were obtained:
Type in all cases: in vivo
[1] = tested on: bronchospasms elicited by serotonin; assay: Konzett procedure: bronchodilator activity in Guinea-Pigs against bronchospasms elicited by intravenous serotonin; conditions: Cavia porcellus, three logarithmic cumulative intravenous doses
Experimental: (§1) The bronchodilator activity for representative compounds of this invention was determined in Guinea-Pigs against bronchospasms elicited by intravenous injections of serotonin, histamine, and acetylcholine, by the Konzett procedure the details of which are those discussed by J. Lulling, P Lievens, F. El Sayed and J. Prignot, Arzeimittel-Forschung 18, 995 (1968).
(§2) In the table which follows, bronchodilator activity for representative compounds of the invention against spasmogenic agents serotonin, histamine, and acetylcholine is expressed as an ED50 determined from the results obtained with three logarithmic cumulative intravenous doses.

[2] = tested on: bronchospasms elicited by histamine; assay: Konzett procedure: bronchodilator activity in Guinea-Pigs against bronchospasms elicited by intravenous histamine; conditions: Cavia porcellus, three logarithmic cumulative intravenous doses
Experimental: as §1, §2

[3] = tested on: bronchospasms elicited by acetylcholine; assay: Konzett procedure: bronchodilator activity in Guinea-Pigs against bronchospasms elicited by intravenous acetylcholine; conditions: Cavia porcellus, three logarithmic cumulative intravenous doses, read-out: ED50 ACETYL CHOLINE
Experimental: as §1, §2

Row | SMILES | ED50 [1] [µg/kg] | ED50 [2] [µg/kg] | ED50 [3] [µg/kg]
1 | C=C(CCC)C(C)(O)C/C=C/[C@H]1[C@H](O)CC(=O)[C@@H]1C/C=C\CCCC(=O)O (relative stereo) [dl 9-oxo-11α,16-dihydroxy-16-methyl-17-methylene-5-cis,13-trans-prostadienoic acid] | 2.5 | 1.2 | 3.6
2 | C=C(CCC)C(O)C/C=C/[C@H]1[C@H](O)CC(=O)[C@@H]1C/C=C\CCCC(=O)O (relative stereo) [dl 9-oxo-11α,16-dihydroxy-17-methylene-5-cis, 13-trans-prostadienoic acid] | 5.4 | 10.6 | 24
